The record followed here is paper PMC9629855, “Development of ASIC1a ligand-gated ion channel drug screening assays across multiple automated patch clamp platforms” (Frontiers in Molecular Neuroscience, 2022).

Where “and” joins values, the source holds several entries; their conditions need not be identical. Equal entries are not always repeated.

What is called IC50 is the concentration that inhibits the measured activity by half. By Hill slope is commonly meant a measure of the steepness of the concentration-response curve.

What all share (set-up): host or cells: CHO (tetracycline-inducible)
Test [1] concerns the target T1, hASIC1a (Homo sapiens, UniProt P78348).
T1 sequence (P78348 1-528): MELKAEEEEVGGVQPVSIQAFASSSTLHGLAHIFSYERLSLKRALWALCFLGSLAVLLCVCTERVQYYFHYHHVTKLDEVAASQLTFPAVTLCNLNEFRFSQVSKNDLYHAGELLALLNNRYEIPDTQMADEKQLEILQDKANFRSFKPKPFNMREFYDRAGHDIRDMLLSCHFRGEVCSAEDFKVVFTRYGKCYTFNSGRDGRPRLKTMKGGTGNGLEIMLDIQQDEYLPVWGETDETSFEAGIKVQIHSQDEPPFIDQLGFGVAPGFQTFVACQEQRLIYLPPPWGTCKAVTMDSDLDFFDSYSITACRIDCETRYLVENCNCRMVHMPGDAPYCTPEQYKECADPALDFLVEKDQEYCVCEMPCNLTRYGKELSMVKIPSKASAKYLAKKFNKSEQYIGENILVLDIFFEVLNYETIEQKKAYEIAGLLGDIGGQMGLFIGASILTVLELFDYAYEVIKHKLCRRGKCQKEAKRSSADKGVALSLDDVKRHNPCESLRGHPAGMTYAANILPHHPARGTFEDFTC
As to the kind of experiment: cell-based. The note with it: pH 6.5 agonist, QPatch 48 single hole. As to the method: (§1) CHO hASIC1a cells were cultured according to vendor instructions (B-SYS GmbH) and HEK cells using standard in-house methods. Both cell lines were harvested using optimized protocols and re-suspended in serum-free media (Gibco CHO-S-SFM from Thermo Fisher Scientific for CHO cells, and Ex-Cell 302 from Merck Sigma-Aldrich for HEK cells) to obtain a suspension of cells with smooth membranes and little debris, before transfer to the automated cell hotel consisting of a 60 ml plastic container (Sophion SB2050) and a magnetic stir bar to prevent cell clumping. An aliquot of cells is then aspirated into a 1 ml microcentrifuge tube and spun down (typically 150 g for 2.5 min) and the supernatant discarded before a user-defined volume of external solution is added by the robot and the cells re-suspended to achieve the desired final cell suspension density before application to primed QPlates. Cell capture, sealing and whole-cell access was achieved using optimized QPatch protocols before currents were recorded using a holding potential of −60 mV. […] Cells were washed three times with external pH 7.3 solution (5 μl) between applications of activating acidic solution to establish a stable ASIC1a current baseline. […] Each concentration of reference compound was applied to each cell before (i.e., during each pH 7.3 application period) and during each pH stimulus (IC50 mode). Thus, each concentration of test compound was pre-incubated with cells for at least 2 min before, and then during each acidic solution challenge, before wash-off in a neutral pH 7.3 solution that contained the next concentration of the same compound. Cells were allowed at least 2 min between applications of acidic solution to enable ASIC1a receptors to recover from desensitization.
(§2) Concentration-response xC50 curves from Patchliner and QPatch 48 experiments were calculated by plotting %inhibition (antagonists) or activation (pH) data against concentration in Prism software (GraphPad), using the variable sigmoidal dose-response function to fit the Hill equation with theoretical minimum block of 0% and maximum block of 100% and a free constant for Hill slope.
In addition, this protocol is designed to avoid tachyphylaxis associated with a more acidic pH stimulus, and it allows the development of a ligand-gated ASIC1a channel assay that can distinguish between agonists, partial agonists and antagonists. […] Compounds were tested using the cumulative concentration-response assay format shown in Figure 5A, which includes a 2 min pre-incubation period for each concentration to allow test samples to reach and equilibrate with their binding site(s) in the pore or large extracellular binding domain of ASIC1 receptor trimers. Agonist effects can also be detected during this period as membrane current data is recorded after every liquid addition. […] Mean inhibition data for each test sample is plotted against Log[compound] and fit with a concentration-response function.

For test [2], the target named is T1, hASIC1a. The test can be described thus: QPatch 48 APC, CHO hASIC1a, multi-hole (10 hole X-plate) recordings. The format is cell-based. The note with it: multi-hole recordings, QPatch 48. As to the method: as §1, §2
Before employing a more efficient multi-hole assay it is important to establish that this variant of the APC whole-cell recording format returns the same biophysics and pharmacology as single cell recordings. To this end we ran some of the reference compounds detailed above in 10 hole “X-plate” mode on the QPatch 48.
(In patch-clamp work, channel activity is measured electrically.)

For test [3], the target named is T1, hASIC1a. As to the kind of experiment: SyncroPatch 384i APC, CHO hASIC1a, puff / stacked puff application. The format is cell-based. The note with it: pH 6.5. As to the method: CHO cells expressing ASIC1a (Charles River) were induced using tetracycline 3–6 h prior to dissociation into a cell suspension.
For recordings of stability and pharmacology using a bolus or “puff” application of ligand, 5 μl of the agonist solution was aspirated and applied to the cell; liquid dispense speed can be set between 1 and 100 μl/s, and a setting of 40 μl/s was used in these experiments. Following agonist addition, 50 μl of the total 90 μl volume in each well is then taken up by the tip to remove most of the agonist solution from the cell. […] For stability experiments, pH 6.5 was applied to each cell followed by a wash with pH 7.4 solution and a wait of 140 s to remove agonist and reverse any desensitization, before a second application of pH 6.5 was made. This sequence was repeated 6–7 times on each cell. For pharmacology experiments, ASIC1a responses were evoked 3 times by pH 6.5 application followed by pre-incubation in the inhibitor for 140 s, after which the inhibitor was co-applied with a pH 6.5 stimulus. Cumulative concentration responses were obtained for each well using 3–4 incrementing concentrations of inhibitor. Concentration response curves for each well were constructed and mean ± S.E.M values for IC50 are given.
To assess the pH sensitivity of ASIC1a responses, pipette tips were loaded with 5 μl of pH 7.4 wash solution followed by 5 μl of activating extracellular solution (pH 7.2 to 4.8). For each sweep, the baseline current was recorded for 1 s in pH 7.4 control solution before the application of the 5-μl activating solution, and then the pH 7.4 wash solution was dispensed with a delay of 1 s to allow for recording of channel opening and desensitization in the presence of ligand before ligand wash-off. Application of the wash solution was followed by aspiration of liquid (50 μl of 90 μl total volume) from each well after a delay of 4 s, before a second wash step with pH 7.4 was performed prior to the application of the next activating pH (interval between stimuli 140 s). Each well received an addition of pH 6.5 solution followed by application of a test pH, and this sequence was repeated a second time to enable data from each cell to be normalized to the control pH 6.5 addition. The pH response curve was constructed across multiple wells with replicates of 48. Pharmacology experiments were performed as described above in “puff” application.
Concentration response curves were fit using a Hill Equation. Statistical comparison of IC50 values for Benzamil was performed using a Student’s t test in Igor Pro 8 (Wavemetrics). […] Z-Factor (Z‘) is calculated using the equation: […]

Where [4] appears, read: 1X single hole chip, Stacked Puff.
Where [5] appears, read: 4X multi-hole chip, Stacked Puff.

Turning to `NC(=NCc1ccccc1)NC(=O)c1nc(Cl)c(N)nc1N` [Benzamil], the IC50 was 4660 nM on hASIC1a [1] (2 min pre-incubation, read-out: IC50 potency); 3490 nM at hASIC1a [2] (read-out: IC50); 1370 nM on hASIC1a [3] (1X single hole chip, Puff); 2480 ± 180 nM against hASIC1a [3] (setting [4]); 1430 nM and 1470 nM against hASIC1a [3] (4X multi-hole chip, Puff); 2200 ± 80 nM on hASIC1a [3] (setting [5]). Moreover, the Hill slope on hASIC1a [1] is 1.1; on hASIC1a [3] (1X single hole chip, Puff), 1.07 ± 0.02; on hASIC1a [3] (setting [4]) it was 1.26 ± 0.03; at hASIC1a [3] (4X multi-hole chip, Puff) it was 1.18 ± 0.03 and 1.12 ± 0.02; on hASIC1a [3] (setting [5]), 1.12 ± 0.02. Moreover, the “Hill slope (Hn)” value on hASIC1a [2] is 1.18.
For `N=C(N)NC(=O)c1nc(Cl)c(N)nc1N` [Amiloride], the Hill slope on hASIC1a [1] is 0.9; on hASIC1a [3] (1X single hole chip, Puff) it was 1.20 ± 0.05; on hASIC1a [3] (setting [4]), 1.39 ± 0.02; at hASIC1a [3] (4X multi-hole chip, Puff) it was 1.19 ± 0.02 and 1.14 ± 0.01; on hASIC1a [3] (setting [5]), 1.24 ± 0.02. On hASIC1a [2], the “Hill slope (Hn)” value is 0.91.
